Where “and” joins values, the source holds several entries; their conditions need not be identical. Equal values may be shown once. Where a name gives a salt, the structure may show the parent alone.
What was measured:
LTB4 receptors = target: T1, LTB4 receptors (Homo sapiens, UniProt Q15722); test: LTB4 Receptor Binding Assay ((3H) LTB4, human neutrophils); settings: 0.6 nM (3H) LTB4, human neutrophils; for IC50: 0° C., 45 minutes, pH 7.4, read-out: Inhibition of Receptor Binding of LTB4 IC50
T1 construct: neutrophils were purified from venous blood of normal human donors; endogenous in cells; host or cells: neutrophils purified from venous blood of normal human donors (purity ≥95%)
T1 sequence (Q15722 whole entry): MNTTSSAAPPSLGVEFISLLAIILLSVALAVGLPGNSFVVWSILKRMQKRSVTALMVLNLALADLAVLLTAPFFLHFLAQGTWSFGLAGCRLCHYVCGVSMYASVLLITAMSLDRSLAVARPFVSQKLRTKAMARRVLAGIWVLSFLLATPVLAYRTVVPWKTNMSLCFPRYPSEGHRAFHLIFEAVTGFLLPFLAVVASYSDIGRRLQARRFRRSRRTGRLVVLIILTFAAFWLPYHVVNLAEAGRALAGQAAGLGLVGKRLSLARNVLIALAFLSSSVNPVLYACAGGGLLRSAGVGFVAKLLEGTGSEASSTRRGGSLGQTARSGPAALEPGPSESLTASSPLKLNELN
From the text: (§1) For use in both the "LTB4 receptor Binding Assay" and the "Human Neutrophil Degranulation Assay", neutrophils were purified from venous blood of normal human donors using standard techniques of dextran sedimentation, centrifugation on Histopaque® (density solution) and hypotonic lysis of erythrocytes (Boyum, A., Isolation of Leukocytes From Human Blood: Further Observations. Scand. J. Lab. Clin. Inves. 21 (Suppl. 97): 31, 1968). The purity of isolated neutrophils was ≥95%.
Neutrophils (4-6×10^6) in 1 ml of Hanks' balanced salt solution containing 10 mM Hepes Buffer (HBSS), pH 7.4 and 30 μM nordihydroguaiaretic acid were incubated with 0.6 nM (^3 H) LTB4 in the presence or absence of test compounds. The incubation was carried out at 0° C. for 45 minutes and terminated by adding 5 ml of ice-cold HBSS followed by rapid filtration of incubation mixture under vacuum through GF/C glass fiber filters. The filters were further washed with 10 ml HBSS and their radioactivity was determined. Specific binding was defined as the difference between total binding and nonspecific binding which was not displaced by 10^-7 M unlabeled LTB4.
The inhibition of specific binding was determined for representative compounds of this invention, and the corresponding IC50 values calculated (Table 1). An IC50 is the concentration of the compound of interest which will inhibit the binding of LTB4 by 50% of the LTB4 receptors. For example, for the compound of Example 7, the IC50 was determined to be approximately 5 μM.

[1] = tested on: LTB4 induced neutrophil degranulation; test: Human Neutrophil Degranulation Assay (LTB4 induced myeloperoxidase release); assay type: cell-based; settings: LTB4 5×10^-8 M, cytochalasin B, human neutrophils, 7 minutes preincubation with compound, read-out: Inhibition of LTB4 Induced Neutrophil Degranulation IC50
From the text: as §1
LTB4 induced neutrophil degranulation was determined by measuring the release of myeloperoxidase activity into the incubation medium. Neutrophils (3×10^6) in 1 ml HBSS solution was preincubated with cytochalasin B(5 μg) at 37° C. for 5 minutes, followed by preincubation with test compounds for 7 minutes. Neutrophils were then incubated for 2 to 20 minutes with either LTB4 (5×10^-8 M) or the chemotactic peptide f-met-leu-phe ([…]) to induce degranulation. Following incubation, samples were centrifuged and myleoperoxidase was extracted from the cell pellets by sonication in phosphate buffer containing 0.4% Triton X-100. Triton X-100 was also added to the supernatents to a concentration of 0.4%. The supernatants and the pellet extracts were then assayed spectrophotometrically for myeloperoxide activity by determining the rate of decomposition of H2 O2 with o-dianisidine as hydrogen donor as described by Renlund, D. G., MacFarlane, J. L., Christensen, R. D., Lynch, R. E., and Rothstein, G., A Quantitative And Sensitive Method For Measurement Of Myeloperoxidose, Clinical Research 28: 75A, 1980). Myeloperoxidase activity released into the supernatant was expressed as the percent of the average total activity (pellet plus supernatant).
The inhibition of LTB4 induced neutrophil degranulation was determined for representative compounds of this invention and their corresponding IC50 values were calculated (Table 1). The concentration of a compound which inhibited LTB4 induced neutrophil degranulation by 50% was determined to be its IC50 value.

Compound	IC50 (LTB4 receptors)	IC50 [1] [nM]	inhibition at 10 µM (LTB4 receptors; at 10μM) [%]
CCCCCCCCC(O)c1ccc(/C=C\C(O)CCCC(=O)OC)cc1 (stereo not shown) [Example 12, Methyl 7-[4-(1-hydroxynonyl)phenyl]-5-hydroxy-6Z-heptenoate]	1000 nM	650	
CCCCCCCCC(O)c1ccc(/C=C\C(O)CCCC(=O)O)cc1 (stereo not shown) [Example 21, 7-[4-(1-hydroxynonyl)phenyl]-5-hydroxy-6Z-heptenoic acid, lithium salt]	2000 nM	1000	
CCCCCCCCC(O)c1ccc(/C=C\C(O)CCCC(=O)O)s1 (stereo not shown) [Example 23, 7-[2-[5-(1-hydroxynonyl)]thienyl-5-hydroxy-6Z-heptenoic acid, lithium salt]	5000 nM	1800	
CCCCCCCCC(O)c1ccc(C#CC(O)CCCC(=O)O)s1 (stereo not shown) [Example 22, 7-[2-[5-(1-hydroxynonyl)]thienyl-5-hydroxy-6Z-heptynoic acid, lithium salt]		8700	20
CCCCC/C=C\CC(O)c1ccc(/C=C\[C@@H](O)CCCC(=O)O)cc1 (stereo partly drawn) [Example 7, 7[4-(1-hydroxy-3Z-nonenyl)phenyl]-5S-hydroxy-6Z-heptenoic acid, lithium salt]	~5000 nM and 5000 nM	700	

Reference: patent US4791133A, “Phenylene, furyl, and thienyl leukotriene B4 analogues” (G. D. Searle & Co., priority 1987, dated 1988)
